Source: patent US11248016B2, “Glycolipids and pharmaceutical compositions thereof for use in therapy” (THE UNIVERSITY OF NOTTINGHAM, priority 2014, dated 2022)

Tests used:
[1] = tested on: firefly luciferase translation reporter; test: Firefly luciferase translation reporter assay; assay type: cell-based, human
From the text: Graphs represent 4 biological repetitions per treatment—2 independent treatments of a compound of Formula II.
Graphs represent 4 biological repetitions per treatment. […] No difference is observed between Hippuristanol and Hippuristanol plus a compound of Formula II.
The degree of translation inhibition is shown to be equivalent to that of a known inhibitor of translation, hippuristanol (FIGS. 3b and 5). Comparative structured 5′UTR firefly luciferase reporter experiments conducted using either hippuristanol or a compound of Formula II show the inhibition of reporter levels is equivalent.
(§1) Cells were transfected using FuGene 6 (Roche) following the manufacturer's instructions. The activities of firefly and renilla luciferase in lysates prepared from transfected cells were measured using a commercially available Luciferase reporter assay system (Promega) and light emission was measured over a 10 sec interval using a TECAN luminometer. For each experiment described, data was obtained from a minimum of at least 3 biological repetitions per treatment.

[2] = tested on: primary canine histocytic sarcoma tumour cells; test: Primary canine tumour cell experiments; assay type: cell-based, dog; conditions: Cisplatin (10 μM) plus Formula II, 6 days
Description: Cells were cultured for 6 days with a single dose treatment of Cisplatin™ (10 μM) or a combination of Cisplatin™ plus a compound of Formula II (active). Images were taken after 6 days treatment and are representative of three independently treated wells. Each image (40× magnification) represents the majority of the well area and is of an equivalent area in each photograph.
(§2) Known inhibitors of protein synthesis such as hippuristanol have proven potent anti-cancer properties when used in combination with chemotherapeutic agents such as Cisplatin™ or Doxorubicin™. However hippuristanol is naturally found in coral to is scarce and expensive to obtain, furthermore it is very difficult and expensive to synthesise. […] In particular this combination has a potent effect at slowing proliferation or killing cancer cells. Slow growing and difficult to treat tumour cell types such as A549 lung cancer cells, SH-SY5Y neuroblastoma or SKOV-3 cancer cells are all sensitised by exposure to Formula II to very low doses of Cisplatin™ (FIGS. 4d, 4e, 4f and 7)—a complete kill can be achieved in both A549 and SH-SY5Y cells after a single dose treatment with g quantities of a compound of Formula II in combination with 1 μM or 2.5 μM treatments of Cisplatin™. […]

white blood cells = test: White blood cells in the primary canine tissue sample; assay type: cell-based; conditions: seen under the microscope, 6 days
From the text: as §2, with “Cisplatin™. A similar effect is observed when rapidly growing tumour cell lines or primary tumour cells (FIG. 8) are treated with a compound of Formula II and chemotherapeutics such as Cisplatin™. In this example primary tumour cells were isolated from a dog and then in vitro exposed to the compound of Formula II and Cisplatin™.” for “Cisplatin™.”

[3] = tested on: SH-SY5Y neuroblastoma cancer cells; test: Cell proliferation, SH-SY5Y; assay type: cell-based; conditions: 96 hours, plus 2.5 μM Cisplatin, higher doses (10 μg) of Formula II
NLGN1 5′UTR = test: NLGN translation reporter assay, neuroligin 1; assay type: cell-based, human; conditions: FIG. 5: 1 μM Hippuristanol, 1.3 μM compound; FIG. 10: compound 46
Description: The mechanism of action and level of activity of Formula II are consistent with and comparative to a proven translational inhibitor extracted from a rare coral species (Hippuristanol—a proven inhibitor of eIf4A). In this experiment 1 μM of Hippuristanol and 1.3 μM of Formula I was used
FIG. 10—Compound 46, NLGN Translation reporter assay.
Direct evidence is provided that inhibiting eIF4A represents a new route to treating ASD based on the data presented by Gkogkas et al. Nature 2013, 493:371-7.
Treatment with the compound of Formula II (and compound 46) (FIG. 5 and FIG. 10) selectively decrease the firefly luciferase signal from a reporter construct containing the NLGN1 5′UTR upstream of a firefly luciferase gene. The translation of luciferase reporters downstream of the NLGN1 5′UTR has been proven to be dependent on the activity of the translation initiation complex eIF4F (Gkogkas et al Nature 2013, 493:371-7)—a complex containing the helicase eIF4A. Equivalent treatment had little effect on the signal generated from either a co-transfected renilla luciferase reporter control or cells transfected with an equivalent construct containing the NLGN2 5′UTR upstream of a firefly luciferase gene (FIG. 5 and FIG. 10).
Experiments conducted using Firefly luciferase reporter plasmids containing the 5′ untranslated regions (UTRs) of the genes amyloid precursor protein (APP), thioredoxin (TXN) were conducted with reagents and materials described by Bottley et al, 2010. Experiments conducted using Firefly luciferase reporter plasmids containing the 5′ UTRs of the genes EGFR, BACE1 and Actin were conducted with reagents and materials described by Webb, 2012 (http://etheses.nottingham.ac.uk/2724/). […]
as §1, with “For each experiment described, data was obtained from a minimum of at least 3 biological repetitions per treatment.” left out

[4] = tested on: Cap-dependent (eIF4A dependant) translation; test: CrPV assay, cap-dependent translation (firefly luciferase); assay type: cell-based; conditions: 20 μM, 3 hours treatment, FIG. 12
From the text: FIG. 12—CrPV assay—Natural molecule targets eIF4A.
By using a well characterised luciferase based reporter assay it was further determined that this class of molecule functions as a protein synthesis inhibitor via targeting the helicase eIF4A.

In the case of CC/C=C\C/C=C\C/C=C\CCCCCCCC(=O)OC[C@H](COC1OC(CO)C(O)C(O)C1O)OC(=O)CCCCCCC/C=C\C/C=C\C/C=C\CC (stereo partly drawn) [Formula II, 1,2-dioctadecatienyl-3-O-β-D-galactosyl-sn-glycerol], the “difference between Hippuristanol and Hippuristanol plus Formula II” value ([1]; Hippuristanol 1 μM, 4 hrs, FIG. 3c) was “No difference”, the “inhibition of translation reporter” value ([1]; Hippuristanol (1 μM) plus Formula II, 4 hrs, FIG. 3c) was “significant inhibition” and the “inhibition of translation reporter activity” value ([1]; neuroblastoma cells, treated 4 hrs, compound alone, FIG. 3b) was “equivalent to treatment with 1 μM Hippuristanol”. The “canine tumour cells after Cisplatin plus Formula II” value [2] was “substantially all tumour cells were killed”, the “white blood cells after Cisplatin and Formula II treatment” value (white blood cells) was “still alive” and the “kill of SH-SY5Y cells in combination with Cisplatin” value [3] was “complete kill”. The “translation of NLGN1 5′UTR firefly luciferase reporter relative to neuroligin 2” value (NLGN1 5′UTR) was “selectively reduces the translation”, the “cap dependant translation (firefly luciferase signal)” value [4] was “selectively reduces the translation of the firefly luciferase gene” and the “cap dependant translation (firefly luciferase signal)” value ([4]; listed as Synthetic version of the natural molecule) was “inhibited”.
